Assay: Water Miscibility Test
Assay type: physicochemical
Conditions: 0.5 g ionic liquid and 4.5 g de-ionized water, sonicated 1.5 hours; miscible if homogenous transparent system within 15 minutes of standing
Procedure: The water miscibility of an ionic liquid is measured by the following water miscibility test. A mixture of 0.5 g ionic liquid and 4.5 g de-ionized water are sonicated in a Bransonic Ultrasonic Bath (model# 1210R-MTH, 50/60 Hz, 117 volts, 1.3 AMPS) according to manufacture's specifications for 1.5 hours. Thereafter, if a homogenous transparent system results within 15 minutes of standing without agitation, then the ionic liquid is water miscible.

SMILES | Water Miscible?
CCCCCCCCCCCCOCCOS(=O)(=O)[O-].CCCCCCCCCCCC[N+](C)(C)O [Example 2, N-dodecyl-N,N-dimethylamine N-oxide dodecylethoxysulfate] | No
CC(C)CC(C)CC(CC(C)C)OCCOCCOCCOS(=O)(=O)[O-].CCCCCCCCCCCC[N+](C)(C)O (centres unmarked) [Example 1, N-dodecyl-N,N-dimethylamine N-oxide 2,4,8-trimethylnonyl-6-triethoxysulfate] | No
